Read-outs that look alike come from different tables or passages of the source.
Tests used:
[1] = test system: absence seizures in patients; details: cited from earlier work
hCaV3.2 = hCaV3.2 (Homo sapiens, UniProt O95180); assay: Inactivated channel state FLIPR assay, concentration-dependent inhibition of hCaV3.2; type: cell-based; details: for slope of the concentration-inhibition curve: logistic function fit; for IC50: hCaV3.2, inactivated channel state FLIPR, n=4 wells per concentration
fully kindled rats = assay: Amygdala kindling model, anti-seizure testing in fully kindled rats; type: in vivo, rat; details: for primary after discharge: all four doses of Z944, ETX 100 mg/kg, compared to vehicle (p>0.5)
Protocol: Animals were implanted with EEG recording electrodes and with a stimulating bipolar electrode in the left basolateral amygdaloid nucleus using the coordinates AP±3.0 mm, ML±5.9 mm, DV±6.0 mm. The after discharge threshold (ADT) for each animal was determined by administering a stimulation (frequency=60.1 Hz; duration=1000 μs) at one minute intervals until a seizure was clicited. The amplitude of the stimulation was started at 0.02 mA with increments of 0.02 mA; the stimulations were stopped when the animal experienced a seizure of ≥6 second duration, or if the amplitude of 0.40 mA was reached without the occurrence of a seizure. […] Kindling was performed twice a day for five days per week with an endpoint of 30 stimulations or until the animal presented five class V seizures (referred to as fully kindled). The seizure severity was classified from 0 (less severe) to V (most severe) according to the Racine Scale (Racine, 1972b). Sham kindled animals were handled the same way as the kindled animals, although no electrical stimulation was applied. An animal is classified as fully kindled once it has experienced 5 class V seizures.
Drug testing was performed twice a week until all animals had received each of the seven treatments, Z944 (5 mg/kg, 10 mg/kg, 30 mg/kg and 100 mg/kg), vehicle (10% DMSO/90% Na^+-CMC or CBZ vehicle 20% DMSO/40% propylene glycol/40% saline), ETX (100 mg/kg) or CBZ (30 mg/kg). Prior to drug testing each day, animals were subjected to a maximum of three pre-drug stimulations 30 minutes apart. The animals qualified for testing on that particular day if a class IV or V seizure was elicited in at least 2 out of 3 pre-drug stimulations. Stimulations consisted of a 1 second train of 1 ms biphasic square wave pulses at a frequency of 60 Hz with current amplitude based on each animal ADT that elicited a seizure. Thirty minutes after the last pre-drug stimulation, the animals received an IP injection of one of the seven treatments in a randomized manner at a dose volume of 5 ml/kg. Six post-drug stimulations were administered to each animal, the first stimulation was given 15 minutes post drug injection (to allow brain penetration of the drugs) and the following five stimulations were delivered in 30 minutes intervals thereafter with the seizure class elicited being recorded after each post-drug stimulation. The duration of the primary and total seizures, if any, were recorded. An investigator blinded to the drug treatment analyzed all EEG recordings. Primary after discharge is the duration of the seizure elicited from the kindling stimulation. Total after discharge is the total seizure duration including any secondary seizures that occur after the primary after discharge. Primary after discharge duration and total seizure duration were recorded and averaged for the 6 post-drug stimulations.
Animal weight and behaviour when handled were monitored for the duration of the experimental period. Additionally, animals were assessed by observation for any adverse effects of drugs on grooming, fur appearance, gait, and excretion.

post-SE rats [2] = assay: Kainic acid induced post-status epilepticus model, video-EEG seizure analysis; type: in vivo, rat; details: osmotic pump 4 weeks; Z944 60 mg/kg/day, levetiracetam 200 mg/kg/day
Protocol: Pumps were filled with either Z944 to deliver a daily dose of 60 mg/kg, levetiracetam to deliver a daily dose of 200 mg/kg or vehicle. For the drug tolerability study, osmotic pumps continuously either Z944, levetiracetam or vehicle for 7 days and for the post-SE study osmotic pumps delivered continuously the different treatments for 28 days.
FIG. 11 summarizes the different methods used on this experimental paradigm.
Animals were implanted with subdural EEG recording electrodes and one week after surgery, the animals were connected using cables that allowed them free movement around their cage. A repeated low dose KA administration protocol was used. Rats were injected i.p. with an initial dose of KA 7.5 mg/kg plus 3 ml of normal saline to prevent dehydration. Animals were monitored for 45 minutes for EEG and behavioural seizures based on the Racine scale. […] This was repeated up to 2 times every 45 minutes. An animal was eliminated from the experiment if it didn't show a stable self-sustained SE after a maximum KA total dose of 15 mg/kg. Two sham groups were treated identically but received saline injections instead of KA. After four hours of sustained electroencephalographic and behavioural seizures the animals were randomly allocated to one of the five treatment groups: sham+vehicle (n=6), sham+Z944 (n=6), post-SE+vehicle (n=8), post-SE+Z944 (n=8), post-SE+levetiracetam (n=9).
Animals were anesthetized and implanted with subcutaneous osmotic pumps containing either vehicle Z944 (60 mg/kg/day), or levetiracetam (200 mg/kg/day) that delivered the treatment continuously for 4 weeks. Immediately after the pump implantation, SE was stopped with diazepam (5 mg/kg/dose).
vEEG recordings commenced at least 4 h prior the induction of SE to provide baseline recordings. The video-EEG recordings continued for the whole duration of the treatment period, i.e. four weeks after the termination of the SE. […] EEG analysis was performed in a blinded manner and confirmed by two different observers. All EEG recordings were visually and manually annotated using Profusion 3 software. A seizure was defined as an episode of rhythmic spiking activity that was three times the baseline amplitude and a frequency >5 Hz that lasted at least 10 s. The end of a seizure was determined as the last spike. The average number of seizures per day, average seizure duration and seizure class (severity) were analysed.

post-SE rats [3] = assay: Morris water maze in post-SE rats; type: in vivo, rat; details: Z944 60 mg/kg/day, levetiracetam 200 mg/kg/day for 4 weeks
Protocol: All behavioural tests were performed in a light-controlled (˜110 lux), closed, quiet and clean room in the. Behavioural testing was performed in a blinded manner to the treatment groups. All of the behavioural tests were video recorded for future analysis. OF, EPM and MWM sessions were filmed using a digital camera mounted above the centre of the arena, which was connected to a computer for the recording and objective analysis of digitized behavioural tests (EthoVision 3.0.15, Noldus). The first behavioural test was performed one week after the last EEG recording. The different behavioural tests/session were performed 24 hours apart from each other. All tests were scored by an experienced observer who was blind to the experimental conditions of the animals.
The MWM is a circular black PVC plastic pool of 160 cm diameter which is filled to a depth of either 2.5 cm above a 10 cm diameter hidden platform water at 25±1° C. The platform is located in the centre of the South-West quadrant during the first 3 sessions and changed to North-East quadrant for the remaining sessions. Visual cues are placed in the main 4 cardinal points, consisting of large black and white symbols that serve as orientation landmarks for the rats. […] The latency to find the escape platform, speed and strategic path used by the animal to locate the platform are recorded. […]

Sequence of hCaV3.2 (O95180 whole entry): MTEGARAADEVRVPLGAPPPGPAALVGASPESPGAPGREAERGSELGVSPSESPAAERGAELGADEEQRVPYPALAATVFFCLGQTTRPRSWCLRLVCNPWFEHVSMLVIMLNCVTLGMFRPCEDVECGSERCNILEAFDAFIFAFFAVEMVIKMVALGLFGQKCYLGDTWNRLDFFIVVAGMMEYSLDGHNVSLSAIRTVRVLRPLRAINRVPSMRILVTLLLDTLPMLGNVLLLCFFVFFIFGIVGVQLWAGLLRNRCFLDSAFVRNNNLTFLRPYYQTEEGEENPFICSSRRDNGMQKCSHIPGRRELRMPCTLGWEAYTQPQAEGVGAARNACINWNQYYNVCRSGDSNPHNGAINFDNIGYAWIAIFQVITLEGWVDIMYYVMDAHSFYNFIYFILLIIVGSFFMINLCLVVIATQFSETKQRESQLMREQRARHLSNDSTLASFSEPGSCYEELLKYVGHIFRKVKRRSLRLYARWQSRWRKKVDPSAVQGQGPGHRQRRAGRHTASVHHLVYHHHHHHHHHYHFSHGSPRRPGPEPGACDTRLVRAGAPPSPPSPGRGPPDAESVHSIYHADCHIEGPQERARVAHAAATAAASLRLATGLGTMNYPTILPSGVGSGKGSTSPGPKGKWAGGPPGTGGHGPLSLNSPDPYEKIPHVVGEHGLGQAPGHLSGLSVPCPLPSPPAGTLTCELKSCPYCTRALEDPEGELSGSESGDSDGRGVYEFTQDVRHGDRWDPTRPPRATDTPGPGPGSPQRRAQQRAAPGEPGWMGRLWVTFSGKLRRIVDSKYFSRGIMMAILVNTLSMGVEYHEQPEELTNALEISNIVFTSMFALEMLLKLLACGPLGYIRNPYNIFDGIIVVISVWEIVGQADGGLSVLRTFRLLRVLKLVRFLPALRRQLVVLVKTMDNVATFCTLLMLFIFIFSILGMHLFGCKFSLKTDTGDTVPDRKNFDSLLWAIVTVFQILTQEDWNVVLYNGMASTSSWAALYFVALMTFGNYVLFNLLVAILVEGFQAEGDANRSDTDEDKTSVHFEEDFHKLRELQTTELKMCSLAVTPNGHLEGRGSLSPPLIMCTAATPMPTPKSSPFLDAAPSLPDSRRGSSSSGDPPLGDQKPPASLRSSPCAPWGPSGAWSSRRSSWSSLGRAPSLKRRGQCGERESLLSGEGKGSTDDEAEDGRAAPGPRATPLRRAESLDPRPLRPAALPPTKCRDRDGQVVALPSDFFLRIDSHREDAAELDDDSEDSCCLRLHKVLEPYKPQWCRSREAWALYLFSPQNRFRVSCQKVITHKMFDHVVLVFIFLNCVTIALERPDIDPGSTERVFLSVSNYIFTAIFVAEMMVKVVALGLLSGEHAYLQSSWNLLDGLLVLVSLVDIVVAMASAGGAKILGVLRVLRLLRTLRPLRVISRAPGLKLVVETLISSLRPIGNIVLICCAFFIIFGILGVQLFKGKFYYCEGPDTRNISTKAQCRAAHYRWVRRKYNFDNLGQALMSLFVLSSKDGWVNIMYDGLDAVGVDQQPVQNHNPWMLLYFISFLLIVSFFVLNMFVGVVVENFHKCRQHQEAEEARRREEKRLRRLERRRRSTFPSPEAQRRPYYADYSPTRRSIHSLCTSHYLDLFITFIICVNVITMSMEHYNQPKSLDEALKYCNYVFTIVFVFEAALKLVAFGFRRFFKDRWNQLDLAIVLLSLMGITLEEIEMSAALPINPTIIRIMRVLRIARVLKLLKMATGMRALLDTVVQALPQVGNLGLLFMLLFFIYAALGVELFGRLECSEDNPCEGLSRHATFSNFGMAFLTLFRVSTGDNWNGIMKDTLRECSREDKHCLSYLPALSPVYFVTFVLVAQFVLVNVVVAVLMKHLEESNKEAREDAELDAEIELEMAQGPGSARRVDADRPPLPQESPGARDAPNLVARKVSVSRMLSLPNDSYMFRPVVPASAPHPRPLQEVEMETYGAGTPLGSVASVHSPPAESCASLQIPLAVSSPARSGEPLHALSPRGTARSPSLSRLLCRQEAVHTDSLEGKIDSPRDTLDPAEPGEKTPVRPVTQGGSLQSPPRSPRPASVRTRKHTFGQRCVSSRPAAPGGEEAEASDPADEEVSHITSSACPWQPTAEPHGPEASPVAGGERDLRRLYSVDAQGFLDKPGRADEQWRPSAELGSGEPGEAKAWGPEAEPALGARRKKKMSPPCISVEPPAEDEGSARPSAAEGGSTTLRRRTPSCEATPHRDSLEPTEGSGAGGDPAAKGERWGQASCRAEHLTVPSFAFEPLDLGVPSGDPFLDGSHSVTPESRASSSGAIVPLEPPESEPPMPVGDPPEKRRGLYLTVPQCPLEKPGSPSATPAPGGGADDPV

SMILES | slope of the concentration-inhibition curve (hCaV3.2) | primary after discharge (fully kindled rats; IP, CBZ 30 mg/kg) | IC50 (hCaV3.2) | also measured
CCCC(CCC)C(=O)[O-].[Na+] [Valproate, sodium valproate] | 4.4 |  |  | patients whose seizures were completely controlled ([1]; at 12 months): 44%; patients whose seizures were completely controlled ([1]; at 16 weeks, video-EEG recordings): 58%
CCC1(C)CC(=O)NC1=O (stereo not drawn) [Ethosuximide, ethosuximide, reference compound] |  | did not affect the primary after discharge | 70 mM | 
NC(=O)N1c2ccccc2C=Cc2ccccc21 [Carbamazepine, carbamazepine, reference compound] |  | did not affect the primary after discharge |  | seizure class elicited (Racine scale) (fully kindled rats; IP, Z944 5, 10, 30, 100 mg/kg, CBZ 30 mg/kg, compared to vehicle): significantly reduced the class of seizure elicited; adverse effects (sedation scale 0-4) compared to vehicle (fully kindled rats; Z944 100 mg/kg, CBZ 30 mg/kg IP, p<0.01): significantly higher adverse effects
CC[C@@H](C(N)=O)N1CCCC1=O [levetiracetam, reference compound] |  |  |  | neurological adverse effects after prolonged treatment (post-SE rats [2]): only transient and minor neurological adverse effects; time to find the hidden platform (cognition) (post-SE rats [3]): took significantly longer to find the hidden platform
CC(C)(C)NC(=O)CN1CCC(CNC(=O)c2cccc(Cl)c2)CC1 [Z941] | 0.8 |  | 0.00012 mM | 
